The subject of the test is PC12 rat cells, thapsigargin death, ATPlite luminescence, 24 h. The experiment in a line: ER stress death rescue in rat PC12 cells – cell-based, undifferentiated PC12, rat pheochromocytoma, ATP luminescence, SAR follow-up (AID 1346). The settings on record: at 25 µM, stronger effect = higher value.
Where [1] appears, read: measured here: survival at 0.25 uM thapsigargin.
[2] abbreviates: measured here: survival at 1 uM thapsigargin.

Active and inactive are the calls of the source.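 How the source made its calls: active means compounds whose cell survival under thapsigargin stays above the level of untreated control cells; inactive means the rest, which was every compound here.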

`CCOc1cccc(C2Nc3ccccc3NC3=C2C(=O)CC(c2ccc(OC)cc2)C3)c1` (stereo not drawn): the survival was 30% (inactive). In addition, under setting [1], the survival turned out to be 18%. Under setting [2], this molecule yielded a survival of 14%.
Regarding `COc1ccc(C2CC(=O)C3=C(C2)Nc2ccccc2NC3c2cccc(Br)c2)cc1OC` (stereo not drawn), the survival was 31% (inactive). This molecule also had a survival under setting [1] of 25%. Under setting [2], this molecule registered a survival of 21%.
`COc1ccc(C2CC(=O)C3=C(C2)Nc2ccccc2NC3c2cccc(C(F)(F)F)c2)cc1OC` (stereo not drawn): the survival is 26% (inactive). For the same molecule, the survival under setting [1] was determined as 25%. In addition, the survival under setting [2] is 23%.
On to `CC1(C)CC(=O)C2=C(C1)Nc1ccccc1NC2c1ccc(-c2ccccc2)cc1` (stereo not drawn), for which the survival was 37% (inactive). The same molecule came in with a survival under setting [1] of 33%. Also, under setting [2], the survival turned out to be 29%.
Take `COc1ccc(C2CC(=O)C3=C(C2)Nc2ccccc2NC3c2ccccc2C(F)(F)F)cc1OC` (stereo not drawn): the survival was 30% (inactive). This molecule also gave a survival under setting [1] of 26%. For the same molecule, under setting [2], the survival stood at 24%.
For the molecule `CCOc1cc(C2Nc3ccccc3NC3=C2C(=O)CC(c2ccc(OC)cc2)C3)cc(Cl)c1O` (stereo not drawn), the survival was 26% (inactive). Besides, under setting [1], the survival amounted to 38%. Besides, the survival under setting [2] was determined as 35%.
On to `COc1ccc(C2CC(=O)C3=C(C2)Nc2ccccc2NC3c2cc(C)ccc2C)cc1` (stereo not drawn), for which the survival was 25% (inactive). This molecule had a survival under setting [1] of 27%. Moreover, under setting [2], the survival stood at 26%.
Regarding `COc1ccc(C2CC(=O)C3=C(C2)Nc2ccccc2NC3c2cccc(Oc3ccccc3)c2)cc1OC` (stereo not drawn), the survival was 49% (inactive). The survival under setting [1] is 29%. In addition, the survival under setting [2] was 28%.
As to `CCCOc1ccc(C2Nc3ccccc3NC3=C2C(=O)CC(c2ccc(OC)c(OC)c2)C3)cc1` (stereo not drawn), the survival is 25% (inactive). The molecule also came in with a survival under setting [1] of 28%. Under setting [2], this molecule registered a survival of 26%.
As to `CSc1ccc(C2Nc3ccccc3NC3=C2C(=O)CC(c2ccccc2)C3)cc1` (stereo not drawn), the survival was 31% (inactive). The molecule also showed a survival under setting [1] of 23%. The molecule also displayed a survival under setting [2] of 19%.
The corresponding values for `O=C1CC(c2ccccc2)CC2=C1C(c1c(F)cccc1Cl)Nc1ccccc1N2` (stereo not drawn) are 22% (inactive), 34% and 24%.
